We go through 2 compounds from US12533393B2, “Vibrio cholerae protein for use against cancer” (priority 2019, dated 2026).

Where a SMILES comes first, the peptide text is derived from it. The star is where a group is joined. Cbz = O=C(OCc1ccccc1)*; CH2F = FC*

Experiment [1] relates to advanced colorectal cancer. As to conditions: cited from earlier work.
The test system of another experiment is HCT8 cells. Put plainly: MakA with 5FU, tumor cell morphology. It counts as cell-based, human. The following applies: HCT8, compared to untreated control. Here is the method:
B) Change in tumor cell morphology in response to MakA and 5FU or MakA at different concentration in combination with 5FU (20 μM). Scale bar=30 μm
Further, the effect on tumor cell morphology was investigated. Unlike 5FU or MakA alone, the combination of MakA and 5FU caused massive changes in tumor cell morphology (FIG. 8B).

The subject of a further experiment is colon carcinoma cells. Put plainly: Caspase inhibition and MakA-induced cell death. It counts as cell-based, human. The following applies: pretreatment; Presto Blue, MTS, flow cytometry. The method, then: For cell death experiments, cells were grown on 96-well plate (1×10^4/well, Tecan Group Ltd) overnight and treated with MakA at different concentration for 48 hours at +37° C., 5% CO2. Cell death was quantified by two different biochemical methods: (1) reduction in PrestoBlue staining; and (2) reduction in MTS absorbance. Cell death is expressed as percentage (%) of untreated control cells for PrestoBlue assay or reduction in absorbance for MTS assay.
For cell death analysis, cells were treated with MakA or vehicle control for 48 h and were subjected to flow cytometry analysis for apoptotic cell death measurement using either Annexin V/Propidium iodide or Annexin V/7AAD (BD Pharmingen) staining according to manufactures instruction. Percentage of apoptotic cells was determined by BD LSRII and BD Accuri C6 flow cytometer (BD Bioscience), respectively.
To address if caspases plays an important role in MakA induced cell death, colon carcinoma cells were pretreated with zVAD-fmk, a pan caspase inhibitor; (Enzolifesciences, Cat #ALX-260-020-M001) followed by treatment with MakA.

Experiment [2] deals with β-catenin in HCT8 and DLD1 cells. The experiment in a line: β-catenin signaling in colon cancer cells (western blot, fractionation, confocal). It counts as cell-based, human. As to conditions: HCT8 and DLD1 cells. The method, then: Colon carcinoma cells were grown on 8-well chamber slide (3×10^4/well, Millipore) overnight, followed by treatment with MakA for 6 or 24 hours and treated with either Alexa-568 labelled or unlabeled MakA (500 nM), fixed with 2% paraformaldehyde (20 min), permeabilized with Triton X (0.25%). Cells were incubated with anti-Ki67 (1:300), anti-β-catenin (1:300), anti-pAKT (1:100) primary antibodies overnight at +4° C., followed by incubation with corresponding Alexa-488 or Alex-568 conjugated secondary antibodies (1:200) for 1 hour. Finally, cells were counterstained with nuclear marker DAPI for 5 min. Slides were mounted with Fluoromount™ aqueous mounting medium (Sigma) and examined using EZC1 Eclipse laser scanning confocal microscope (Nikon), using 63×/1.4 plan Apo ns lens. Images were captured and processed using the NIS-Elements (Nikon) and ImageJ software.
To examine whether MakA affects β-catenin signaling in human colon cancer cells, HCT8 and DLD1 cells carrying mutations that inactivates APC tumor suppressor gene (Mouradov, D. et al. (2014) Cancer Res. 2014 Jun. 15; 74(12):3238-47) were used.
To address if MakA decreases the nuclear accumulation of β-catenin, cells were treated with MakA and fractionated into cytoplasmic and nuclear fractions.
As caspase-3 mediated fragmentation of β-catenin has been reported (Steinhusen, U. et al. (2000) J Biol Chem 275: 16345-16353), its role in MakA induced β-catenin fragmentation was investigated.

In the case of `O=c1[nH]cc(F)c(=O)[nH]1` [5FU, 5-fluorouracil, reference compound], the overall response rate in experiment [1] was 10-15%. Further, the tumor cell morphology result with HCT8 cells is recorded as “caused increased cell size”.
Consider `COC(=O)C[C@H](NC(=O)[C@H](C)NC(=O)[C@@H](NC(=O)OCc1ccccc1)C(C)C)C(=O)CF` [zVAD-fmk, reference compound] (Cbz-Val-Ala-Asp(OMe)-CH2F), for which the “effect of caspase inhibitor on MakA-induced cell death” value in the experiment with colon carcinoma cells is recorded as “partially rescued the cells from MakA-induced cell death”. Also, in experiment [2], the “effect of caspase inhibitor on MakA-induced β-catenin fragmentation” value was “rescued both HCT8 and DLD1 cells from MakA-induced fragmentation and decrease in β-catenin”.
